From patent publication US10000775B2, “Biosynthesis of 1-undecene and related terminal olefins” (The Regents of the University of California, priority 2013, dated 2018)

Columns and labels:
Type in all cases: biochemical, Pseudomonas fluorescens Pf-5
PFL_4321 [1] = assay: In vitro enzymatic assays of PFL_4321 with fatty acid substrates or analogs; conditions: purified PFL_4321, Fe2+, ascorbic acid
Experimental: A typical condition is as follows: 1 mL of reaction mixture contains 50 mM MES buffer (pH 6.2), 300 mM NaCl, 100 μM (NH4)2Fe(SO4)2, 1 mM ascorbic acid, 100 μM fatty acid substrate or analogs, and 10 μM enzyme. The reaction was performed in a sealed headspace vial at 30° C., initiated by adding lauric acid and quenched by injecting equal volume of 5 M NaOH. 1-Undecene production was analyzed and quantified by using the SPME-GCMS method. To determine the kinetic parameters of PFL_4321 on lauric acid, initial velocities at 1, 10, 20, 50, 100, and 150 μM of lauric acid were measured (25 mM lauric acid solution was prepared by adding 0.5% tergitol and heating at 65° C. for 10 min). The reactions were quenched at 2, 4, 6, 8, and 10 seconds, and the acquired turnover rates were fit to the Michaelis-Menten equation using GraphPad Prism to obtain kcat and Km. The kcat and Km of myristic acid and capric acid were determined similarly.
To acquire the kinetic parameters of PFL_4321 on 11-aminoundecanoic acid and 12-aminododecanoic acid, initial velocities at 25, 50, 100, 150, 200, 250, 500, and 700 μM were measured. 50 μl of aliquots of the reaction were quenched at 1, 1.5, 2, 2.5, 3, 3.5, 4, 4.5, 5, 5.5, and 6 minutes by adding 100 μl of acetonitrile. Denatured enzymes were removed by centrifugation at 15,000 g for 20 min. LC-HRMS analysis was carried out on an Agilent Technologies 6520 Accurate-Mass Q-TOF LC-MS instrument equipped with an Agilent Eclipse Plus C18 column (3.5 μm, 4.6×100 mm). 10 μL of the solution was injected into LC-HRMS and a linear gradient of 55 to 95% CH3CN (vol/vol) over 15 min in H2O with 0.1% (vol/vol) formic acid at a flow rate of 0.5 mL/min was used for analysis. The exact masses of aminoundec-1-ene and aminodec-1-ene were extracted, and the peaks were integrated and compared with the standard compounds.

PFL_4321 [2] = assay: Metal ion requirement of PFL_4321 in vitro (1-undecene production from lauric acid)
Experimental: Additional in vitro assays were performed with PFL_4321 using lauric acid, its esters, or thioesters as potential substrates. […] PFL_4321 was incubated with lauric acid in the presence of various metal ions, including Fe^2+, Fe^3+, Mg^2+, Ca^2+, Mn^2+, Co^2+, Ni^2+, Cu^2+, and Zn^2+.

PFL_4321 [3] = assay: Test of H2O2 as a possible substrate
Experimental: To examine whether the H2O2/Fe^3+ or the H2O2/Fe^2+ system provides for the PFL_4321 activity, anaerobic enzymatic reactions in the glove box were performed. The deoxygenated reaction mixture contained 50 mM MES buffer (pH 6.2), 100 mM NaCl, 100 μM PFL_4321, 100 μM either FeCl3 or (NH4)2Fe(SO4)2, 1 mM LA, and various amount of H2O2 (100, 200, 500, 1000, 5000 μM), and 1-undecene production was analyzed. The aerobic reaction was carried out under similar conditions except that the O2 was provided by mixing with the equal volume of O2-saturated buffer solution (50 mM MES, pH 6.2, 100 mM NaCl).

PFL_4321 [4] = assay: Reductive co-substrate screening, with chlorite dismutase coupled assay; conditions: coupled with chlorite dismutase reaction to generate O2 in situ
Experimental: FIG. 28 illustrates a comparison of 1-undecene production by using various reductive cofactors/cosubstrates in the presence of excessive O2 provided by the coupled […] dismutase reaction. The reaction mixture contains 100 μM MES (pH 6.1), 300 mM NaCl, 1 mM lauric acid (dissolved in 0.5% tergitol), 100 μM PFL_4321, 100 μM (NH4)2Fe(SO4)2, 2 μM chlorite dismutase, 4 mM sodium chlorite, and 2 mM reductive cofactor/co-substrates. When needed, 40 μM FAD, FMN, ferredoxin, PQQ, or PMS, and 20 μM flavin reductase (FL-R) or ferredoxin reductase (FR) were added. 1-undecene production was analyzed after reacting for 100 min. Error bars represent standard deviations from at least three independently performed experiments.
To survey the possible reductive co-substrates, the oxygenated buffer solution (50 mM MES, pH 6.2, 100 mM NaCl) was mixed with an equal volume of an O2-free solution containing 50 mM MES buffer (pH 6.2), 100 mM NaCl, 200 μM PFL_4321, 200 μM (NH4)2Fe(SO4)2, 2 mM LA, and 4 mM of the reductive co-substrate, so that the final mixture contained 50 mM MES buffer (pH 6.2), 100 mM NaCl, 100 μM PFL_4321, 100 μM (NH4)2Fe(SO4)2, 1 mM LA, and 2 mM of the reductive co-substrate. The reaction was carried out in a sealed GC vial due to the semi-volatility of 1-undecene. […]

PFL_4321 [5] = assay: Survey of reductive cofactors/cosubstrates under iron-limited conditions; conditions: iron-limiting conditions; 1 mM reductive cofactor
Experimental: FIG. 7 illustrates a comparison of 1-undecene production by using various reductive cofactors/cosubstrates under iron-limited conditions. 2.5 mL of reaction mixture contains 100 μM MES (pH 6.1), 300 mM NaCl, 50 μM lauric acid, 5 μM PFL_4321, 0.1 μM (NH4)2Fe(SO4)2, and 1 mM reductive cofactor. When needed, 40 μM FAD, FMN, ferredoxin, or phenazine, and 20 μM flavin reductase (FL-R) or ferredoxin reductase (FR) were added.
A survey was conducted to identify the possible reductive cofactor/cosubstrates according to the well-studied oxygen-activating iron-dependent oxygenases, including but not limited to α-ketoglutarate, ascorbic acid, glutathione, cysteine, nicotinamides, flavins, ferredoxin (F. H. Vaillancourt et al., Nature 436, 1191, 2005; W. C. Chang et al., Nature 496, 114, 2013; L. M. Mirica et al., J Am Chem Soc 130, 8122, 2008; P. C. Bruijnincx et al., Chem Soc Rev 37, 2716, 2008). […] Accordingly, ascorbic acid was included in all of the following in vitro assays and the kinetic parameters of PFL_4321 toward lauric acid (C12) were determined (FIG. 8).

Compound | conversion of the substrate by PFL_4321 (to the corresponding minus-1-carbon 1-alkene or other product) (PFL_4321 [1]) | also measured
CCCCCCCCCC=CC(=O)O [2,3-dodecenoic acid] | no activity | –
CCCCCCCCC(C)CCC(=O)O (centres unmarked) [4-methyldodecanoic acid] | converted to their corresponding terminal olefins | –
C#CCCCCCCCCC(=O)O [10-undecynoic acid] | catalyzed the conversion | –
NCCCCCCCCCCC(=O)O [11-aminoundecanoic acid] | catalyzed the conversion | –
O=C(O)CCCCCCCCCCBr [11-bromoundecanoic acid] | catalyzed the conversion | –
CC(C)CCCCCCCCCC(=O)O [11-methyldodecanoic acid] | converted to their corresponding terminal olefins | –
NCCCCCCCCCCCC(=O)O [12-aminododecanoic acid] | catalyzed the conversion | –
O=C(O)CCCCCCCCCCCBr [12-bromododecanoic acid] | catalyzed the conversion | –
O=C(O)CN(CCN(CC(=O)O)CC(=O)O)CC(=O)O [EDTA, ethylenediaminetetraacetic acid] | – | effect on 1-undecene formation by PFL_4321, lauric acid and E. coli crude extract (PFL_4321 [2]; addition of chelating agent): quenched
[Fe+2] [Fe^2+] | – | 1-undecene production by PFL_4321 with lauric acid in the presence of the metal ion (PFL_4321 [2]; PFL_4321 incubated with lauric acid and metal ion): elicited the 1-undecene production
OO [H2O2] | – | 1-undecene formation in the presence of H2O2 (PFL_4321 [3]; anaerobic reactions with either PFL_4321-Fe(III) or PFL_4321-Fe(II)): no 1-undecene was formed; 1-undecene formation in the presence of H2O2 (PFL_4321 [3]; both H2O2 and O2, PFL_4321-Fe(III)): no 1-undecene was formed; effect of H2O2 on 1-undecene formation (PFL_4321 [3]; reaction containing O2 and PFL_4321-Fe(II)): did not promote
[2H]C([2H])(CCCCCCCCCC)C(=O)O [[α,α-D2]lauric acid] | led to the production of 1-undecene retaining both deuterium atoms | –
O=C1O[C@H]([C@@H](O)CO)C(O)=C1O [ascorbic acid] | – | multiple turnovers for PFL_4321 in vitro (PFL_4321 [4]): allowed for multiple turnovers; rate of 1-undecene production with multiple turnovers (PFL_4321 [4]): four; effect on the yield of 1-undecene (PFL_4321 [5]): significantly increased
CCCCCCCCCC(=O)O [capric acid] | converted | –
CCCCCCCC(=O)O [caprylic acid] | failed to act | –
N[C@@H](CS)C(=O)O [cysteine] | – | effect on the yield of 1-undecene (PFL_4321 [5]): modest effect
O=S(O)S(=O)O [dithionite] | – | effect on 1-undecene production by PFL_4321 (PFL_4321 [3]; added to reduce O2 to H2O2 in situ): inhibited
CCCCCCCCCCCCCC(=O)O [myristic acid] | converted | –
CCCCCCCCCCCCCCCC(=O)O [palmitic acid] | failed to act | –
CCCCCCCCCCC(O)C(=O)O (stereo not drawn) [α-hydroxydodecanoic acid] | transformed | –
CCCCCCCCCC(O)CC(=O)O (stereo not drawn) [β-hydroxydodecanoic acid] | no activity | –
[D23]lauric acid | led to the production of [D22]1-undecene | –
